# From patent publication US20160272645A1, “Heterocyclic Compounds and Methods of Use” (MEDIVATION TECHNOLOGIES, INC., priority 2013, published 2016)
# Test system: CD69+B220+ cells (mouse spleen cells)
# Assay: B cell activation assay (IgD-stimulated CD69 on B220+ spleen cells, FACS)
# Type: cell-based
# Settings: 100 nM test compound, 30 min, then IgD 3 μg/mL 4 h, read-out: CD69 @ 100 nM (% Inh)
# Protocol: 1 Female mouse approximately 2 months old was euthanized with CO2 and the spleen removed. The tissue was homogenized with a polished glass microscope slide. The cells were collected in 5 mL complete medium (RPMI+10% FBS+pen/strep), placed in a 15 mL falcon tube and centrifuged at 500×g for 5 min. The supernatant was discarded and the pellet was resuspended in 3 mL of ACK lysis buffer (NH4Cl 0.17M, KHCO3 10 mM, EDTA-Na2 0.1 mM, pH 7.2), incubated at 37° C. for 5 min. 2 mL complete medium was added and the mixture centrifuged at 500×g for 5 min. The supernatant was discarded and the pellet resuspended in 1 mL complete medium. The mixture was passed through a […] cell strainer and collect in 50 mL falcon tube. Enough medium was added to have a total of 10 mL. The cells were counted and seeded in 24 or 48-well plate in 1 mL complete medium at 10^6 cells/mL. The plate was placed in a 37° C. incubator for 15 min. The cells were treated for 30 min at 37° C. with 100 nM test compound dissolved in 100% DMSO. 3 μL IgD (Accurate chemical and scientific corp.) was added at a final concentration of 3 μg/mL and the mixture incubated at 37° C. for 4 h. The cells were collected in 1.5 mL eppendorf tubes, centrifuged at 500×g for 5 min and then resuspended in 100 μL of PBS+2% FBS. The following antibodies were added: α-B220 PE (pharmingen #553090), α-CD69 APC (pharmingen #60689), live/dead fixable aqua dead cell stain kit (life technologies # L34957) all at 1:300, and the mixture incubated for 15 min at 4° C. in the dark. To this was added 900 μL of PBS+2% FBS and the mixture centrifuged at 500×g for 5 min. The supernatant was removed and the pellet resuspended in 300 μL of PBS+2% FBS and mixed well. The mixture was transferred to a cytometer tube. The samples were run in the FACS Canto II cytometer and quantified by the number of CD69+B220+ cells as a percentage of the total number of B220+ alive cells.
row,SMILES,inhibition at 0.1 µM [%]
1,"Nc1ncnc2c1c(-c1cc(O)cc(F)c1)nn2CCNc1ccccc1 [Compound 1, 3-(4-amino-1-(2-(phenylamino)ethyl)-1H-pyrazolo [3,4-d]pyrimidin-3-yl)-5-fluorophenol]",74.5 ± 6.72
2,"C=CC(=O)N(CCn1nc(-c2cc(O)cc(F)c2)c2c(N)ncnc21)c1ccccc1 [Compound 2, N-(2-(4-amino-3-(3-fluoro-5-hydroxyphenyl)-1H-pyrazolo[3,4-d]pyrimidin-1-yl)ethyl)-N-phenylacrylamide]",-114 ± 72.2
3,"C=CC(=O)N(CCn1nc(-c2cc(O)cc(F)c2)c2c(N)ncnc21)Cc1ccccc1 [Compound 5, N-(2-(4-amino-3-(3-fluoro-5-hydroxyphenyl)-1H-pyrazolo[3,4-d]pyrimidin-1-yl)ethyl)-N-benzylacrylamide]",12.5 ± 22.3
4,"C=CC(=O)N(CCn1nc(-c2cc(O)cc(F)c2)c2c(N)ncnc21)Cc1ccc(F)cc1 [Compound 10, N-{2-[4-amino-3-(3-fluoro-5-hydroxyphenyl)-1H-pyrazolo [3,4-d]pyrimidin-1-yl]ethyl}-N-[(4-fluorophenyl)methyl]prop-2-enamide]",-23.7 ± 39.7
5,"C=CC(=O)N(CCn1nc(-c2cc(O)cc(F)c2)c2c(N)ncnc21)Cc1ccccc1F [Compound 11, N-[2-[4-amino-3-(3-fluoro-5-hydroxy-phenyl)pyrazolo[3,4-d]pyrimidin-1-yl]ethyl]-N-[(2-fluorophenyl)methyl]prop-2-enamide]",-23.7 ± 39.7
6,"C=CC(=O)N(CCn1nc(-c2cc(O)cc(F)c2)c2c(N)ncnc21)Cc1ccc(Cl)cc1 [Compound 12, N-{2-[4-amino-3-(3-fluoro-5-hydroxyphenyl)-1H-pyrazolo[3,4-d]pyrimidin-1-yl]ethyl}-N-[(4-chlorophenyl)methyl]prop-2-enamide]",-44.7 ± 53.6
7,"C=CC(=O)N(CCn1nc(-c2cc(O)c(F)c(F)c2)c2c(N)ncnc21)Cc1ccc(Cl)cc1 [Compound 16, N-{2-[4-amino-3-(3,4-difluoro-5-hydroxyphenyl)-1H-pyrazolo[3,4-d]pyrimidin-1-yl]ethyl}-N-[(4-chlorophenyl)methyl]prop-2-enamide]",-44.8 ± 29.4

# Test system: CD69+B220+ cells (mouse spleen cells)
# Assay: as above
# Type: cell-based
# Settings: IgD 3 μg/mL 4 h
row,SMILES,IC50 [nM]
1,"Nc1ncnc2c1c(-c1cc(O)cc(F)c1)nn2CCNc1ccccc1 [Compound 1, 3-(4-amino-1-(2-(phenylamino)ethyl)-1H-pyrazolo [3,4-d]pyrimidin-3-yl)-5-fluorophenol]",55.1 ± 38.3
